Experimental data reported in publication PMC7391726, “Fatty acid mimetic PBI-4547 restores metabolic homeostasis via GPR84 in mice with non-alcoholic fatty liver disease” (Scientific Reports, 2020).

Experiments:
[1] = system: HFD-fed Gpr84−/− mice; test: High-fat diet (HFD) mouse model, Gpr84−/− mice; assay type: in vivo
Method: Based on PBI-4547’s pharmacological profile and binding activities, we next used Gpr84^−/− mice fed a HFD to investigate the role of GPR84 in mediating the protective effects of PBI-4547 on glucose and FA metabolism.
WT or Gpr84^−/− mice, as previously described, (aged 10–14 weeks at the beginning of the experiment) were either fed a standard diet (STD) or a high-fat diet (HFD) (Envigo #TD.06414) for 14 weeks. At this point, mice were administered either vehicle (water) or PBI-4547 (10 mg/kg) on a daily basis for 6 (WT study) or 8 (WT vs KO study) weeks by gastric gavage, and were sacrificed thereafter. Liver and WAT tissues were fixed in 10% formalin for histological analyses or flash frozen in liquid nitrogen for RT-PCR analyses. All animal studies were reviewed and approved by the animal care and use committee of the Institut National de la Recherche Scientifique – Armand-Frappier (Laval, QC, Canada) and the University of Ottawa’s Animal Care and Veterinary Services (Ottawa, ON, Canada). Protocols were approved and undertaken according to the Canadian Council on Animal Care guidelines.
Oral glucose tolerance tests (OGTT) were completed 6 weeks after beginning of the treatments. Briefly, mice were fasted for 4–6 h, given a bolus of glucose at […] BW orally, and blood glucose values measured at 0, 15, 30, 60, 120 min. In parallel, a blood sample was obtained at 0, 15, 60 and 120 min for insulin quantification by ELISA (EMD Millipore).
After fixation in formalin, iWAT (inguinal), eWAT (epididymal) and liver sections were embedded in paraffin. Thin section of […] were stained with Hematoxylin and Eosin or Sirius red for analyses. WAT collagen deposition and liver characteristics of NAFLD were quantified histologically by a pathologist (R.C.) in a double-blinded manner. Liver histology was performed on H&E stained slides. WAT collagen deposition was scored using Picro Sirius-Red stained slides. Immunofluorescence-detection of α-SMA in liver sections was performed. Briefly, samples were deparaffinized in a series of xylenes, rehydrated in graded alcohols followed by an antigen-unmasking step by microwaving in Tris-buffer (pH 8.2). Sections were blocked with 10% donkey serum (Vector labs), 1% bovine serum albumin (Sigma) in PBS + 1%Tween for 1 h at room temperature. Slides were incubated overnight at 4 °C with an anti-mouse smooth muscle α-Actin antibody (1:300; Santa Cruz, clone #1A4). Secondary detection was performed using a donkey anti-mouse Alexa Fluor 594 (1:500; Molecular Probes), incubated for 1 h at room temperature. Slides were dehydrated and mounted with fluorescent antifade media containing DAPI (Vector labs). Images were taken at 100X and 200X magnification and representative images are shown.
RNA was extracted and purified as previously described. Real-time quantitative PCR was performed on a CFX96 Touch Real-Time PCR Detection System (Bio-Rad) using TaqMan gene expression assays (Fisher Scientific). qPCR data were analyzed using the 2-^ΔΔCt method, using Gapdh and Hprt as endogenous control. RT-qPCR data were reported as Geometric means ± SEM.

[2] = system: HepG2 hepatocytes; test: Mitochondrial respiration (Seahorse OCR) in HepG2 hepatocytes; assay type: cell-based; settings: HepG2, 24 h treatment
Method: Moreover, hepatic expression of several genes involved in glucose metabolism including Pklr (pyruvate kinase L/R), G6pc (glucose-6-phosphatase, catalytic) and Slc2a2 (Glut2) was normalized by PBI-4547 (Fig. 4B). […] To test this hypothesis, mitochondrial respiration in HepG2 hepatocytes was measured (Fig. 4C). […] However, it did decrease maximal respiration and ATP production, in agreement with the metabolomics results.
Figure 4 Effects of PBI-4547 on glucose and FA metabolism in liver. (A) Relative gene expression levels of glucose and FA-related metabolism in liver from STD, HFD and HFD + PBI-4547 mice. Data are presented as geometric mean ± SEM (n ≥ 6 per group, one-way ANOVA with Dunnett’s multicomparison test vs HFD group). (B) 1H-NMR metabolic profiling in liver tissues. (C) Oxygen Consumption Rate (OCR) and Extracellular Acidifcation Rate (ECAR) in HepG2 hepatocytes. Measurements of basal respiration, maximal respiration, ATP production and proton leak in HepG2 hepatocytes treated or not with PBI-4547. (D) Oxidation rate of ^14C-palmitate in HepG2 hepatocytes treated or not with PBI-4547. Data are presented as mean ± SEM (n = 3, Student t test Ctrl vs PBI-4547). See also Fig. S2.
Oxygen consumption rate (OCR) and extracellular acidification rate (ECAR) were measured with a Seahorse XF96 as per manufacturer’s protocol (Agilent). Briefly, 8 × 10^4 HepG2 cells were plated onto Seahorse XF96 96-well plates for 24 h prior to stimulation. The next day, cells were treated with PBI-4547 or with vehicle control for 24 h. Cells were subjected to a mitochondrial stress test with serial injections of Oligomycin (1 μM; ATPase inhibitor), FCCP (1 μM; mitochondrial uncoupler) and Rotenenone/Antimycin A (1 μM; complex I/III inhibitor).

[3] = WT vs KO study, HFD-fed Gpr84−/−

CCCCCc1cc(CCCCC)cc(CC(=O)[O-])c1.[Na+] [PBI-4547, 2-[3,5-dipentylphenyl]acetate sodium salt]
immunodetectable α-SMA in liver ([1]; HFD-fed GPR84−/− mice): further decreased | impact on hepatic steatosis ([1]; HFD-fed Gpr84−/− (KO) mice): protective effect was lost | expression of hepatic genes previously found regulated by PBI-4547 in WT mice ([1]; HFD-fed Gpr84−/− mice, qRT-PCR): no longer modulated | WAT mean adipocyte diameters and area [1, 3]: remained unchanged | fasting blood glucose levels [1, 3]: only in WT mice | serum adiponectin [1, 3]: upregulated | serum cholesterol levels [1, 3]: remained unchanged | serum triglyceride levels [1, 3]: only in WT mice | OGTT ([1]; WT vs KO study, HFD-fed Gpr84−/−, after 6 weeks): only had a significant effect on OGTT in WT mice | modulatory effect on pro-inflammatory and pro-fibrotic markers in WAT ([1]; mice lacking the GPR84 receptor): absent | ATP production [2]: decrease | basal oxygen consumption rate (OCR) [2]: did not affect | maximal respiration [2]: decrease | mitochondrial proton leak [2]: significantly increased
